Several values for one entry are separate records, joined by “and”; a condition that tells them apart may be missing. Equal entries are not always repeated.
Tests used:
[1] = test system: carrageenan induced paw edema; assay: carrageenan-induced rat paw edema; type: in vivo; conditions: for % Inhibition of Edema ± Standard Error / Mean Edema Thickness: 10 mg/kg indomethacin mol equivalent i.p.; for Mean Edema Thickness: ± standard error
[2] = test system: LPS-stimulated RAW264.7 macrophages; assay: NO production of LPS-induced RAW264.7 (Griess method); type: cell-based; conditions: 40 μg/mL; LPS 10 ng/mL; LPS only 22 μM, baseline 12.8 μM
IL-6 mRNA = conditions: 40 μg/mL; in comparison to LPS-stimulated cells only
Protocol: (§1) For this purpose, the mRNA levels of IL-6, TNF-α, and iNOS were measured using real-time qPCR (RT-qPCR).
(§2) Treatment of LPS-stimulated RAW264.7 macrophages was done with 40 µg/mL of the isolated
(§3) Evaluation of inflammatory mRNA expression levels
(§4) Inflammatory mRNA expression levels were evaluated using RT-qPCR (Applied Biosystems, CA, USA). Total RNA was extracted by lysing RAW264.7 cells using Qiazol Lysis Reagent. The extracted RNA was used to synthesize cDNA using RevertAid First Strand cDNA synthesis kit according to manufacturer’s protocol. The cDNA was then added with forward and reverse
(§5) primers, nuclease free water and maxima SYBR green mix (Thermo Fisher Scientific, MA, USA).
(§6) The inflammation-related genes of mRNA expression levels are as follows: IL-6, TNF-α, and
(§7) iNOS. All expression was normalized to GAPDH (endogenous control) and relative fold mRNA
(§8) expression levels were calculated using the comparative 2 −ΔΔCT method. The PCR reaction consists
(§9) of initiation stage at 95 °C for 10 min, after that 40 PCR cycles of d enaturation stage for 15 s at 95
(§10) °C and annealing and extension for 1 min at 60 °C.

iNOS mRNA = conditions: 40 μg/mL; in comparison to LPS-stimulated cells only
Protocol: as §1, §2, §3, §4, §5, §6, §7, §8, §9, §10

TNF-α mRNA = conditions: 40 μg/mL; in comparison to LPS-stimulated cells only
Protocol: as §1, §2, §3, §4, §5, §6, §7, §8, §9, §10

Structure (SMILES)	% Inhibition of Edema ± Standard Error ([1]; 1 h)	Mean Edema Thickness ([1]; 1 h)	% Inhibition of Edema ± Standard Error ([1]; 2 h)	Mean Edema Thickness ([1]; 2 h)	% Inhibition of Edema ± Standard Error ([1]; 3 h, 10 mg/kg)	Mean Edema Thickness ([1]; 3 h)	% Inhibition of Edema ± Standard Error ([1]; 4 h)	Mean Edema Thickness ([1]; 4 h)	% Inhibition of Edema ± Standard Error ([1]; 24 h)	Mean Edema Thickness ([1]; 24 h)	% Potency ([1]; % inhibition of edema thickness relative to indomethacin at 3 h)	LPS-stimulated NO production (nitrite) [2]	reduction in IL-6 mRNA levels (IL-6 mRNA)	reduction in iNOS mRNA levels (iNOS mRNA)	reduction in TNF-α mRNA levels (TNF-α mRNA)
C#CCOC(=O)C(C)c1ccc(CC(C)C)cc1 (stereo not drawn) [Compound 3, Prop-2-yn-1-yl 2-(4-isobutylphenyl) Propanoate]	15.8 ± 1.9%	0.727 ± 0.05 mm	17.4 ± 0.9%	0.589 ± 0.01 mm	85.8% and 85.8 ± 1.1%	0.103 ± 0.04 mm	33.7 ± 1.2%	0.473 ± 0.03 mm	0.00 ± 0.3%	0.920 ± 0.02 mm	105.8%				
Cc1ccc(-n2cc(COC(=O)C(C)c3ccc(CC(C)C)cc3)nn2)cc1 (stereo not drawn) [Compound 5d, (1-(p-Tolyl)-1H-1,2,3-triazol-4-yl)methyl 2-(4-isobutylphenyl)propanoate]									0.00 ± 1.7%			1.45 ± 1.3 µM	66.2%	59%	72%
COc1ccccc1-n1cc(COC(=O)C(C)c2ccc(CC(C)C)cc2)nn1 (stereo not drawn) [Compound 5e, (1-(2-Methoxyphenyl)-1H-1,2,3-triazol-4-yl)methyl 2-(4-isobutylphenyl)propanoate]							7.4 ± 1.8%					insignificant decrease	82%	42%	86%
